Test results as given in the NIST ThermoML archive (doi:10.1016/j.jct.2008.10.007).

How the values were obtained:
[1] = xn = mol fraction of the nth substance listed; conditions: 298.15 K, 101 kPa, Liquid, Vibrating tube method
[2] = excess molar enthalpy (molar enthalpy of mixing); xn = mol fraction of the nth substance listed; conditions: 298.15 K, 101 kPa, Liquid, Calvet calorimetry

ClCCCl [1,2-dichloroethane] + CCCOC(C)=O
Conditions	excess molar enthalpy [kcal/mol]	mass density [kg/m3]
[1], x2 = 0.0403	–	1224.14
[1], x2 = 0.0822	–	1202.71
[1], x2 = 0.1258	–	1181.25
[1], x2 = 0.1723	–	1159.34
[1], x2 = 0.2206	–	1137.71
[1], x2 = 0.271	–	1116.1
[1], x2 = 0.323	–	1094.66
[1], x2 = 0.3773	–	1073.38
[1], x2 = 0.435	–	1051.79
[1], x2 = 0.4925	–	1031.26
[1], x2 = 0.5542	–	1010.09
[1], x2 = 0.6231	–	987.69
[1], x2 = 0.693	–	966.04
[1], x2 = 0.7654	–	944.7
[1], x2 = 0.8389	–	924.07
[1], x2 = 0.9173	–	903.11
[2], x2 = 0.0472	-0.0155	–
[2], x2 = 0.1047	-0.0332	–
[2], x2 = 0.1719	-0.0559	–
[2], x2 = 0.2424	-0.0793	–
[2], x2 = 0.3127	-0.102	–
[2], x2 = 0.3806	-0.117	–
[2], x2 = 0.4423	-0.128	–
[2], x2 = 0.5012	-0.132	–
[2], x2 = 0.5663	-0.13	–
[2], x2 = 0.6408	-0.122	–
[2], x2 = 0.7169	-0.107	–
[2], x2 = 0.8115	-0.0784	–
[2], x2 = 0.9076	-0.0447	–

ClCCCCl [1,3-dichloropropane] + CCCOC(=O)CC
Conditions	excess molar enthalpy [kcal/mol]	mass density [kg/m3]
[1], x2 = 0.0456	–	1160.2
[1], x2 = 0.09	–	1142.38
[1], x2 = 0.1357	–	1124.66
[1], x2 = 0.1827	–	1107.03
[1], x2 = 0.2323	–	1089.1
[1], x2 = 0.2857	–	1070.52
[1], x2 = 0.3377	–	1053.06
[1], x2 = 0.3926	–	1035.32
[1], x2 = 0.5112	–	999.15
[1], x2 = 0.5749	–	980.88
[1], x2 = 0.6382	–	963.43
[1], x2 = 0.7097	–	944.54
[1], x2 = 0.7804	–	926.67
[1], x2 = 0.8459	–	910.76
[1], x2 = 0.9232	–	892.71
[2], x2 = 0.0469	-0.00932	–
[2], x2 = 0.1103	-0.0208	–
[2], x2 = 0.1814	-0.0361	–
[2], x2 = 0.2562	-0.0545	–
[2], x2 = 0.3312	-0.0691	–
[2], x2 = 0.4023	-0.0803	–
[2], x2 = 0.4661	-0.0882	–
[2], x2 = 0.528	-0.0927	–
[2], x2 = 0.6046	-0.0894	–
[2], x2 = 0.706	-0.0793	–
[2], x2 = 0.816	-0.0576	–
[2], x2 = 0.9152	-0.0318	–

ClCCCCl [1,3-dichloropropane] + CCCOC(C)=O
Conditions	excess molar enthalpy [kcal/mol]	mass density [kg/m3]
[1], x2 = 0.051	–	1160.75
[1], x2 = 0.1013	–	1143.09
[1], x2 = 0.1519	–	1125.74
[1], x2 = 0.2062	–	1107.55
[1], x2 = 0.2602	–	1089.75
[1], x2 = 0.314	–	1072.51
[1], x2 = 0.4262	–	1037.75
[1], x2 = 0.5391	–	1004.31
[1], x2 = 0.5986	–	987.32
[1], x2 = 0.6602	–	970.1
[1], x2 = 0.7227	–	953.06
[1], x2 = 0.758	–	943.63
[1], x2 = 0.7981	–	933.1
[1], x2 = 0.8553	–	918.23
[1], x2 = 0.934	–	898.35
[2], x2 = 0.054	-0.00908	–
[2], x2 = 0.1279	-0.0206	–
[2], x2 = 0.2091	-0.0349	–
[2], x2 = 0.2781	-0.049	–
[2], x2 = 0.3637	-0.0624	–
[2], x2 = 0.4401	-0.0741	–
[2], x2 = 0.5067	-0.0813	–
[2], x2 = 0.5223	-0.0829	–
[2], x2 = 0.572	-0.0837	–
[2], x2 = 0.6457	-0.0779	–
[2], x2 = 0.738	-0.0679	–
[2], x2 = 0.8364	-0.0488	–
[2], x2 = 0.931	-0.0237	–

ClCCCCCl [1,4-dichlorobutane] + CCCOC(=O)CC
Conditions	excess molar enthalpy [kcal/mol]	mass density [kg/m3]
[1], x2 = 0.0527	–	1118.03
[1], x2 = 0.1038	–	1102.83
[1], x2 = 0.1547	–	1087.98
[1], x2 = 0.2085	–	1072.56
[1], x2 = 0.2627	–	1057.37
[1], x2 = 0.3186	–	1041.98
[1], x2 = 0.3736	–	1027.16
[1], x2 = 0.49	–	996.65
[1], x2 = 0.5485	–	981.77
[1], x2 = 0.612	–	965.97
[1], x2 = 0.6735	–	950.93
[1], x2 = 0.7351	–	936.2
[1], x2 = 0.8004	–	920.88
[1], x2 = 0.866	–	905.76
[1], x2 = 0.9333	–	890.53
[2], x2 = 0.0573	-0.00621	–
[2], x2 = 0.133	-0.0151	–
[2], x2 = 0.2168	-0.0308	–
[2], x2 = 0.3006	-0.0461	–
[2], x2 = 0.381	-0.0598	–
[2], x2 = 0.4539	-0.071	–
[2], x2 = 0.5117	-0.0743	–
[2], x2 = 0.5559	-0.0743	–
[2], x2 = 0.6419	-0.071	–
[2], x2 = 0.7366	-0.0621	–
[2], x2 = 0.8338	-0.0447	–
[2], x2 = 0.9261	-0.0227	–

ClCCCCCl [1,4-dichlorobutane] + CCCOC(C)=O
Conditions	excess molar enthalpy [kcal/mol]	mass density [kg/m3]
[1], x2 = 0.0583	–	1118.51
[1], x2 = 0.1175	–	1103.2
[1], x2 = 0.1743	–	1088.55
[1], x2 = 0.232	–	1073.72
[1], x2 = 0.3494	–	1043.76
[1], x2 = 0.465	–	1014.55
[1], x2 = 0.523	–	999.98
[1], x2 = 0.5845	–	984.6
[1], x2 = 0.6424	–	970.19
[1], x2 = 0.7011	–	955.64
[1], x2 = 0.7618	–	940.61
[1], x2 = 0.8813	–	911.2
[1], x2 = 0.9397	–	896.91
[2], x2 = 0.0555	-0.00478	–
[2], x2 = 0.1316	-0.0131	–
[2], x2 = 0.2183	-0.0234	–
[2], x2 = 0.3079	-0.0359	–
[2], x2 = 0.3915	-0.048	–
[2], x2 = 0.456	-0.055	–
[2], x2 = 0.4663	-0.0559	–
[2], x2 = 0.4979	-0.0576	–
[2], x2 = 0.5721	-0.0564	–
[2], x2 = 0.6576	-0.0523	–
[2], x2 = 0.7494	-0.0447	–
[2], x2 = 0.8443	-0.0318	–
[2], x2 = 0.9296	-0.0174	–

ClCCCCCCl [1,5-dichloropentane] + CCCOC(=O)CC
Conditions	excess molar enthalpy [kcal/mol]	mass density [kg/m3]
[1], x2 = 0.0586	–	1081.99
[1], x2 = 0.1204	–	1068.2
[1], x2 = 0.1736	–	1056.39
[1], x2 = 0.2854	–	1031.55
[1], x2 = 0.3403	–	1019.42
[1], x2 = 0.4006	–	1006.12
[1], x2 = 0.5242	–	978.97
[1], x2 = 0.635	–	954.74
[1], x2 = 0.6961	–	941.43
[1], x2 = 0.7548	–	928.67
[1], x2 = 0.8219	–	914.07
[1], x2 = 0.8809	–	901.3
[1], x2 = 0.942	–	888.12
[2], x2 = 0.0588	-0.00406	–
[2], x2 = 0.1375	-0.0136	–
[2], x2 = 0.2257	-0.0241	–
[2], x2 = 0.3118	-0.0375	–
[2], x2 = 0.3922	-0.0495	–
[2], x2 = 0.4517	-0.0576	–
[2], x2 = 0.4693	-0.059	–
[2], x2 = 0.5239	-0.0609	–
[2], x2 = 0.5982	-0.0588	–
[2], x2 = 0.6783	-0.0526	–
[2], x2 = 0.7663	-0.0425	–
[2], x2 = 0.855	-0.0287	–
[2], x2 = 0.9359	-0.0146	–
